The values that follow come from article PMC10274775 (bioRxiv, 2023).

As a reminder, the EC50 is the concentration at which the effect is half-maximal. Low readings indicate a more potent agent, high ones a less potent agent.

Experiment [1] deals with T1, MCU-MICU1 complex (MICU1-1 dimer) (Homo sapiens, UniProt Q8NE86+Q9BPX6).
T1 sequence (Q8NE86 51-351): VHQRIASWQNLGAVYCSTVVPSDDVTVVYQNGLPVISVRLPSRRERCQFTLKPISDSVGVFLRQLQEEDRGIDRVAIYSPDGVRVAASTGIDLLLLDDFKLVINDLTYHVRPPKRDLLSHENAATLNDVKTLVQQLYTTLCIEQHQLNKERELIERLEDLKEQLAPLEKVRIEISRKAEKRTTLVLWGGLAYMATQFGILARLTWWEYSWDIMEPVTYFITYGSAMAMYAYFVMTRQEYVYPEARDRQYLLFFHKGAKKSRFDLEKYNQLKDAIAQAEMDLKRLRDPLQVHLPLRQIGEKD
T1 sequence (Q9BPX6 34-476): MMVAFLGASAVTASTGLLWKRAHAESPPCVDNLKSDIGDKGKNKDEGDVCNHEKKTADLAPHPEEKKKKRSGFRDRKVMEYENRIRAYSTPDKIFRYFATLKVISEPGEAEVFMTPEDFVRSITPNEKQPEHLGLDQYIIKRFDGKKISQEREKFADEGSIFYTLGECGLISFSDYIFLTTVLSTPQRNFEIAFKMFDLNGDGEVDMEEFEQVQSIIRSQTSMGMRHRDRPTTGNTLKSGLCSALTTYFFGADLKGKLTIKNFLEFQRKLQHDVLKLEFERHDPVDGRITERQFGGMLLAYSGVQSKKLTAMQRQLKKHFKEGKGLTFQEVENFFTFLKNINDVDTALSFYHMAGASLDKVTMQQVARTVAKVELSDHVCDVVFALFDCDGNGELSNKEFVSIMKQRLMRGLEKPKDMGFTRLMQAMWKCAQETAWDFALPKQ
Put plainly: co-immunoprecipitation from HEK lysate, western blot. Conditions: 1 mM spermine, 1 mM EGTA; disruption of the MCU-MICU1 interaction; pH 7.4, 4 mM DDM. It is filed as biochemical. A general note: In western blotting, separated proteins are transferred to a membrane and probed.

In experiment [2] the target is T2, uniporter with MICU1-MICU1 homodimer (MICU2-KO HEK cells) (Homo sapiens, UniProt Q8NE86+Q9BPX6).
T2 sequence (Q8NE86 51-351): T1 sequence (Q8NE86 51-351)
T2 sequence (Q9BPX6 34-476): T1 sequence (Q9BPX6 34-476)
T2 sequence (Q9H4I9 53-107 partner): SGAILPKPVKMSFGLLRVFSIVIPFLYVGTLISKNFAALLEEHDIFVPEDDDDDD
Nature of the experiment: Fluo-4 extramitochondrial Ca2+ in digitonin-permeabilized MICU2-KO HEK cells. The experiment is classed as biochemical.

Turning to `NCCCNCCCCNCCCN` [spermine], in experiment [1], the “co-immunoprecipitation from HEK lysate, western blot” value was “spermine fully breaks complex formation between MCU and the MICU1-1 dimer”. In addition, in experiment [2], the response was half-maximal at 158 µM (EC50).
